In ChEMBL document CHEMBL4184215, “Lysosomes-targeting imaging and anticancer properties of novel bis-naphthalimide derivatives” (Bioorg Med Chem Lett, 2018):
Active and inactive are the calls of the source. No cut-off for these calls is given here.

What was measured:
[1] = system: HeLa; assay: Cytotoxicity against human HeLa cells assessed as reduction in cell viability incubated for 48 hrs by MTT assay; format: functional, cell-based
[2] = system: A549; assay: Cytotoxicity against human A549 cells assessed as reduction in cell viability incubated for 48 hrs by MTT assay; format: functional, cell-based; settings: A549, 48 h
[3] = system: MGC-803; assay: Cytotoxicity against human MGC803 cells assessed as reduction in cell viability incubated for 48 hrs by MTT assay; format: functional, cell-based; settings: MGC-803, 48 h
[4] = system: MCF7; assay: Cytotoxicity against human MCF7 cells assessed as reduction in cell viability incubated for 48 hrs by MTT assay; format: functional, cell-based; settings: MCF7, 48 h
[5] = system: HeLa; assay: Cell cycle arrest in human HeLa cells assessed as accumulation at S phase at 7.5 uM incubated for 12 hrs by propidium iodide staining based flow cytometry (reference value: 27.8%); format: functional
[6] = system: HeLa; assay: Cell cycle arrest in human HeLa cells assessed as accumulation at S phase at 2.5 uM incubated for 12 hrs by propidium iodide staining based flow cytometry (reference value: 27.8%); format: functional
[7] = system: HeLa; assay: Cell cycle arrest in human HeLa cells assessed as accumulation at G1 phase at 2.5 uM incubated for 12 hrs by propidium iodide staining based flow cytometry (reference value: 65.2%); format: functional
[8] = system: Calf thymus DNA; assay: Binding affinity to calf thymus DNA assessed as increase in intensity of positive band at 275 nm at 8 uM to 40 uM by CD spectroscopy; format: nucleic-acid assay; settings: Bos taurus
[9] = system: HeLa; assay: Cell cycle arrest in human HeLa cells assessed as accumulation at G2 phase at 2.5 uM incubated for 12 hrs by propidium iodide staining based flow cytometry (reference value: 7%); format: functional
[10] = system: Calf thymus DNA; assay: Binding affinity to calf thymus DNA assessed as increase in […] shift at 1 x 10^-5 M by fluorescence spectroscopy (reference value: 542 nanometer); format: nucleic-acid assay; settings: Bos taurus
[11] = system: HeLa; assay: Cell cycle arrest in human HeLa cells assessed as accumulation at G2 phase at 5 uM incubated for 12 hrs by propidium iodide staining based flow cytometry (reference value: 7%); format: functional
[12] = system: HeLa; assay: Cell cycle arrest in human HeLa cells assessed as accumulation at G1 phase at 5 uM incubated for 12 hrs by propidium iodide staining based flow cytometry (reference value: 65.2%); format: functional
[13] = system: HeLa; assay: Cell cycle arrest in human HeLa cells assessed as accumulation at G1 phase at 7.5 uM incubated for 12 hrs by propidium iodide staining based flow cytometry (reference value: 65.2%); format: functional
[14] = system: HeLa; assay: Cell cycle arrest in human HeLa cells assessed as accumulation at G2 phase at 7.5 uM incubated for 12 hrs by propidium iodide staining based flow cytometry (reference value: 7%); format: functional
[15] = system: Calf thymus DNA; assay: Binding affinity to calf thymus DNA assessed as increase in compound fluorescence intensity at 1 x 10^-5 M up to 1.4 x 10^-4M DNA by fluorescence spectroscopy; format: nucleic-acid assay; settings: Bos taurus
[16] = system: Calf thymus DNA; assay: Binding affinity to calf thymus DNA assessed as change in melting temperature at 5 uM; format: nucleic-acid assay; settings: Bos taurus
[17] = system: Calf thymus DNA; assay: Binding affinity to calf thymus DNA assessed as reduction in compound self absorption intensity at 1 x 10^-5 M by UV-Visible spectroscopy; format: nucleic-acid assay; settings: Bos taurus
[18] = Drug accumulation in lysosome of human HeLa cells at 5 uM incubated for 1 hr by lysososmal tracker DND-99 based confocal microscopy; format: ADME, subcellular
[19] = system: Calf thymus DNA; assay: Binding affinity to calf thymus DNA assessed as induction of ICD signal changes at 8 uM to 40 uM by CD spectroscopy; format: nucleic-acid assay; settings: Bos taurus
[20] = system: Calf thymus DNA; assay: Binding affinity to calf thymus DNA assessed as induction of bathochromic shift of maximum absorption peaks at 1 x 10^-5 M by UV-Visible spectroscopy (reference value: 426 nanometer); format: nucleic-acid assay; settings: Bos taurus
[21] = system: Calf thymus DNA; assay: Binding affinity to calf thymus DNA at 1 x 10^-5 M by UV-Visible spectroscopy; format: nucleic-acid assay; settings: Bos taurus
[22] = system: HeLa; assay: Cell cycle arrest in human HeLa cells assessed as accumulation at S phase at 5 uM incubated for 12 hrs by propidium iodide staining based flow cytometry (reference value: 27.8%); format: functional
[23] = system: Calf thymus DNA; assay: Binding affinity to calf thymus DNA assessed as induction of maximum emission band shift at 1 x 10^-5 M by fluorescence spectroscopy; format: nucleic-acid assay; settings: Bos taurus
[24] = system: Calf thymus DNA; assay: Binding affinity to calf thymus DNA assessed as increase in compound fluorescence intensity at 1 x 10^-5 M by fluorescence spectroscopy; format: nucleic-acid assay; settings: Bos taurus

Compound	IC50 [1]	IC50 [2]	IC50 [3]	IC50 [4]	further results
O=C1c2cccc3c(N4CC[C@H](O)C4)ccc(c23)C(=O)N1CCCNCCNCCCN1C(=O)c2cccc3c(N4CC[C@H](O)C4)ccc(c23)C1=O	35.4 µM	83.6 µM	5.96 µM	142 µM	
O=C1c2cccc3c(N4CCC[C@@H]4CO)ccc(c23)C(=O)N1CCCNCCNCCCN1C(=O)c2cccc3c(N4CCC[C@@H]4CO)ccc(c23)C1=O	89.2 µM	72.6 µM	6.41 µM	93.5 µM	
Cl.Cl.Cl.Cl.O=C1c2cccc3c(N4CCN(CCO)CC4)ccc(c23)C(=O)N1CCCNCCNCCCN1C(=O)c2cccc3c(N4CCN(CCO)CC4)ccc(c23)C1=O	2.73 µM	2.59 µM	1.6 µM	20 µM	Activity [5]: 53.87%; Activity [6]: 40.2%; Activity [7]: 48.9%; Activity [8]: Active; Activity [9]: 10.9%; Activity [10]: 528 nm; Activity [11]: 4.3%; Activity [12]: 46%; Activity [13]: 42.6%; Activity [14]: 3.7%; Activity [15]: Active; ΔTm [16]: 14.3 °C; Activity [17]: Active; Drug uptake [18]: Active; Activity [19]: Active; Activity [20]: inactive; K [21]: 2.6 ×10⁵ /M; Activity [22]: 49.7%
Cl.Cl.Cl.Cl.O=C1c2cccc3c(N4CCC(O)CC4)ccc(c23)C(=O)N1CCCNCCNCCCN1C(=O)c2cccc3c(N4CCC(O)CC4)ccc(c23)C1=O	2.89 µM	46.2 µM	0.6 µM	37.1 µM	Activity [5]: 50.4%; Activity [6]: 40.8%; Activity [7]: 47.5%; Activity [8]: Active; Activity [23]: inactive; Activity [9]: 11.7%; Activity [11]: 9.9%; Activity [12]: 44.9%; Activity [13]: 44.3%; Activity [14]: 5.3%; ΔTm [16]: 8.2 °C; Activity [17]: Active; Drug uptake [18]: Active; Activity [19]: Active; Activity [24]: Active; Activity [20]: 445 nm; K [21]: 1.8 ×10⁵ /M; Activity [22]: 45.2%
O=C1c2cccc3c(N4CC[C@@H](O)C4)ccc(c23)C(=O)N1CCCNCCNCCCN1C(=O)c2cccc3c(N4CC[C@@H](O)C4)ccc(c23)C1=O	45.4 µM	23 µM	9.41 µM	74.6 µM	
O=C1c2cccc3c(N4CCC[C@H]4CO)ccc(c23)C(=O)N1CCCNCCNCCCN1C(=O)c2cccc3c(N4CCC[C@H]4CO)ccc(c23)C1=O	85.2 µM	472 µM	35.1 µM	147 µM	
O=C1c2cccc3c(N4CCC(CO)CC4)ccc(c23)C(=O)N1CCCNCCNCCCN1C(=O)c2cccc3c(N4CCC(CO)CC4)ccc(c23)C1=O	4.03 µM	14 µM	2.03 µM	22.7 µM	
O=C1c2cccc3c(N4CCC(CCO)CC4)ccc(c23)C(=O)N1CCCNCCNCCCN1C(=O)c2cccc3c(N4CCC(CCO)CC4)ccc(c23)C1=O	6.88 µM	43.5 µM	90.4 µM	11.1 µM	
CN(C)CCN1C(=O)c2cccc3cc(N)cc(c23)C1=O [AMONAFIDE]	3.41 µM	2 µM	3.23 µM	6.79 µM	
